Assay: xn = mol fraction of the nth substance listed
Details: 101 kPa, x2 = 0.3209

CCCC[n+]1ccn(C)c1.O=S(=O)([O-])C(F)(F)F + NCCO
Details | speed of sound [m/s] | viscosity [mPa·s]
298.15 K | 1428.8 | 41.99
303.15 K | 1417 | 34.4
308.15 K | 1405.2 | 28.38
313.15 K | 1393.2 | 23.76
318.15 K | 1382.1 | 20.13
323.15 K | 1370.6 | 17.25
328.15 K | 1359.2 | 14.94
333.15 K | 1348 | 13.05

Source: a compilation of properties of binary mixtures (doi:10.1021/acs.jced.0c00618)
